From PubChem BioAssay AID1963974 (Molecular Pharmacology Branch, DTP, NCI, 2024)
“And” between values parts separate entries of the source, which are not always exact repeats. Equal values may be shown once.

System: 648629-189-R-J1-PDC spheroids with HUVEC/MSC, viability
Test: Anticancer human tumor 648629-189-R-J1-PDC patient-derived bladder carcinoma cell line growth inhibition [PI3K]
Conditions: for viability, T/C: stronger effect = lower value
Procedure, shortened: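 Spheroid viability read-out. Co-cultures contained the tumor line plus HUVEC and human MSCs. Each agent was paired with a PI3K inhibitor (inavolisib, alpelisib, duvelisib, copanlisib) across half-log dilutions starting at clinical Cmax, or at 10 microM when Cmax was unknown.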

[1] = curve of first compound, second compound 0.0316 µM
[2] = curve of first compound, second compound 0.1 µM
[3] = curve of first compound, second compound 0.316 µM
[4] = curve of first compound, second compound 1 µM
[5] = curve of first compound, second compound 3.16 µM
[6] = curve of first compound, second compound 10 µM
[7] = second compound 0.0316 µM, first compound 0.0316 µM
[8] = second compound 0.0316 µM, first compound 0.1 µM
[9] = second compound 0.1 µM, first compound 0.0316 µM
[10] = second compound 0.1 µM, first compound 0.1 µM
[11] = second compound 0.316 µM, first compound 0.0316 µM
[12] = second compound 0.316 µM, first compound 0.1 µM
[13] = second compound 1 µM, first compound 0.0316 µM
[14] = second compound 1 µM, first compound 0.1 µM
[15] = second compound 3.16 µM, first compound 0.0316 µM
[16] = second compound 3.16 µM, first compound 0.1 µM
[17] = second compound 10 µM, first compound 0.0316 µM
[18] = second compound 10 µM, first compound 0.1 µM
[19] = second compound 0.0316 µM, first compound 0.316 µM
[20] = second compound 0.0316 µM, first compound 1 µM
[21] = second compound 0.0316 µM, first compound 3.16 µM
[22] = second compound 0.0316 µM, first compound 10 µM
[23] = second compound 0.1 µM, first compound 0.316 µM
[24] = second compound 0.1 µM, first compound 1 µM
[25] = second compound 0.1 µM, first compound 3.16 µM
[26] = second compound 0.1 µM, first compound 10 µM
[27] = second compound 0.316 µM, first compound 0.316 µM
[28] = second compound 0.316 µM, first compound 1 µM
[29] = second compound 0.316 µM, first compound 3.16 µM
[30] = second compound 0.316 µM, first compound 10 µM
[31] = second compound 1 µM, first compound 0.316 µM
[32] = second compound 1 µM, first compound 1 µM
[33] = second compound 1 µM, first compound 3.16 µM
[34] = second compound 1 µM, first compound 10 µM
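Note: spheroids exposed to agents for seven days before reading.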
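Throughout, for viability, T/C: percent of vehicle control luminescence where 100% = DMSO treated spheroids.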

Q: How did the IC50 [1] turn out when CC(=O)c1c(C)c2cnc(Nc3ccc(N4CCNCC4)cn3)nc2n(C2CCCC2)c1=O + CC(Nc1ncnc2nc[nH]c12)c1cc2cccc(Cl)c2c(=O)n1-c1ccccc1 was run?
A: > 100 nM

Q: What about the IC50 [2] of the same compound?
A: > 100 nM

Q: And the IC50 [3]?
A: > 100 nM

Q: And the IC50 [4]?
A: > 100 nM

Q: And the IC50 [5]?
A: > 100 nM

Q: What about the IC50 [6] of the same compound?
A: > 100 nM

Q: What about the viability, T/C (second compound 0.0316 µM, first compound 0.000316 µM) of the same compound?
A: 102%

Q: And the viability, T/C (second compound 0.0316 µM, first compound 0.001 µM)?
A: 104%

Q: What about the viability, T/C (second compound 0.0316 µM, first compound 0.00316 µM) of the same compound?
A: 101%

Q: And the viability, T/C (second compound 0.0316 µM, first compound 0.01 µM)?
A: 92.1%

Q: And the viability, T/C [7]?
A: 111%

Q: What about the viability, T/C [8] of the same compound?
A: 102%

Q: What about the viability, T/C (second compound 0.1 µM, first compound 0.000316 µM) of the same compound?
A: 102%

Q: And the viability, T/C (second compound 0.1 µM, first compound 0.001 µM)?
A: 99.2%

Q: And the viability, T/C (second compound 0.1 µM, first compound 0.00316 µM)?
A: 98.5%

Q: What about the viability, T/C (second compound 0.1 µM, first compound 0.01 µM) of the same compound?
A: 90.9%

Q: And the viability, T/C [9]?
A: 117%

Q: And the viability, T/C [10]?
A: 116%

Q: And the viability, T/C (second compound 0.316 µM, first compound 0.000316 µM)?
A: 93.1%

Q: And the viability, T/C (second compound 0.316 µM, first compound 0.001 µM)?
A: 103%

Q: And the viability, T/C (second compound 0.316 µM, first compound 0.00316 µM)?
A: 107%

Q: What about the viability, T/C (second compound 0.316 µM, first compound 0.01 µM) of the same compound?
A: 107%

Q: What about the viability, T/C [11] of the same compound?
A: 111%

Q: What about the viability, T/C [12] of the same compound?
A: 97.9%

Q: What about the viability, T/C (second compound 1 µM, first compound 0.000316 µM) of the same compound?
A: 100%

Q: What about the viability, T/C (second compound 1 µM, first compound 0.001 µM) of the same compound?
A: 97.4%

Q: What about the viability, T/C (second compound 1 µM, first compound 0.00316 µM) of the same compound?
A: 109%

Q: What about the viability, T/C (second compound 1 µM, first compound 0.01 µM) of the same compound?
A: 102%

Q: What about the viability, T/C [13] of the same compound?
A: 112%

Q: What about the viability, T/C [14] of the same compound?
A: 98.9%

Q: And the viability, T/C (second compound 3.16 µM, first compound 0.000316 µM)?
A: 90.8%

Q: And the viability, T/C (second compound 3.16 µM, first compound 0.001 µM)?
A: 108%

Q: What about the viability, T/C (second compound 3.16 µM, first compound 0.00316 µM) of the same compound?
A: 91.9%

Q: And the viability, T/C (second compound 3.16 µM, first compound 0.01 µM)?
A: 113%

Q: What about the viability, T/C [15] of the same compound?
A: 101%

Q: And the viability, T/C [16]?
A: 107%

Q: And the viability, T/C (second compound 10 µM, first compound 0.000316 µM)?
A: 90.3%

Q: And the viability, T/C (second compound 10 µM, first compound 0.001 µM)?
A: 92.2%

Q: And the viability, T/C (second compound 10 µM, first compound 0.00316 µM)?
A: 95.3%

Q: What about the viability, T/C (second compound 10 µM, first compound 0.01 µM) of the same compound?
A: 88.7%

Q: What about the viability, T/C [17] of the same compound?
A: 89.3%

Q: And the viability, T/C [18]?
A: 94.3%

Q: What does the source list for C=CC(=O)N1CCN(c2nc(=O)n(-c3c(C)ccnc3C(C)C)c3nc(-c4c(O)cccc4F)c(F)cc23)C(C)C1 (centres undefined)?
A: viability, T/C (compound 0.0316 µM): 112% [middle of 4 runs]; viability, T/C (compound 0.1 µM): 103% (2×) and 102% and 99.5%; viability, T/C (compound 0.316 µM): 110% and 107% (2×) and 100%; viability, T/C (compound 1 µM): 109% [middle of 4 runs]; viability, T/C (compound 3.16 µM): 105% [middle of 4 runs]; viability, T/C (compound 10 µM): 96% [middle of 4 runs]; IC50 (curve of compound): > 10000 nM

Q: How did the IC50 (curve of first compound, second compound 0.00316 µM) turn out when Cn1ncc(Cl)c1-c1cc(C(=O)NC(CN)Cc2cccc(F)c2)sc1Cl (centres undefined) + CC(Nc1ccc2c(c1)OCCn1cc(N3C(=O)OCC3C(F)F)nc1-2)C(N)=O was run?
A: > 10000 nM

Q: What about the IC50 (curve of first compound, second compound 0.01 µM) of the same compound?
A: 766 nM

Q: And the IC50 [1]?
A: > 10000 nM

Q: What about the IC50 [2] of the same compound?
A: 270 nM

Q: What about the IC50 [3] of the same compound?
A: 209 nM

Q: What about the IC50 [4] of the same compound?
A: 162 nM

Q: What about the viability, T/C (second compound 0.00316 µM, first compound 0.0316 µM) of the same compound?
A: 97%

Q: What about the viability, T/C (second compound 0.00316 µM, first compound 0.1 µM) of the same compound?
A: 87.4%

Q: And the viability, T/C (second compound 0.00316 µM, first compound 0.316 µM)?
A: 50.5%

Q: And the viability, T/C (second compound 0.00316 µM, first compound 1 µM)?
A: 30.1%

Q: And the viability, T/C (second compound 0.00316 µM, first compound 3.16 µM)?
A: 20.2%

Q: What about the viability, T/C (second compound 0.00316 µM, first compound 10 µM) of the same compound?
A: 102%

Q: What about the viability, T/C (second compound 0.01 µM, first compound 0.0316 µM) of the same compound?
A: 88.8%

Q: What about the viability, T/C (second compound 0.01 µM, first compound 0.1 µM) of the same compound?
A: 91%

Q: And the viability, T/C (second compound 0.01 µM, first compound 0.316 µM)?
A: 56.1%

Q: What about the viability, T/C (second compound 0.01 µM, first compound 1 µM) of the same compound?
A: 32.6%

Q: What about the viability, T/C (second compound 0.01 µM, first compound 3.16 µM) of the same compound?
A: 17.5%

Q: And the viability, T/C (second compound 0.01 µM, first compound 10 µM)?
A: 94.3%

Q: What about the viability, T/C [7] of the same compound?
A: 98%

Q: And the viability, T/C [8]?
A: 80.4%

Q: And the viability, T/C [19]?
A: 55.1%

Q: And the viability, T/C [20]?
A: 30.8%

Q: And the viability, T/C [21]?
A: 19.4%

Q: And the viability, T/C [22]?
A: 99.7%

Q: And the viability, T/C [9]?
A: 85.3%

Q: And the viability, T/C [10]?
A: 72.9%

Q: And the viability, T/C [23]?
A: 47.4%

Q: And the viability, T/C [24]?
A: 27.5%

Q: And the viability, T/C [25]?
A: 14.8%

Q: What about the viability, T/C [26] of the same compound?
A: 89%

Q: What about the viability, T/C [11] of the same compound?
A: 79.9%

Q: And the viability, T/C [12]?
A: 61.5%

Q: What about the viability, T/C [27] of the same compound?
A: 47.5%

Q: And the viability, T/C [28]?
A: 24%

Q: And the viability, T/C [29]?
A: 15.7%

Q: And the viability, T/C [30]?
A: 72.2%

Q: What about the viability, T/C [13] of the same compound?
A: 56.2%

Q: And the viability, T/C [14]?
A: 62.1%

Q: And the viability, T/C [31]?
A: 37.3%

Q: And the viability, T/C [32]?
A: 22.6%

Q: And the viability, T/C [33]?
A: 13.2%

Q: What about the viability, T/C [34] of the same compound?
A: 67%

Q: How did the viability, T/C (compound 0.0316 µM) turn out when C#Cc1c(F)ccc2cc(O)cc(-c3ncc4c(N5CC6CCC(C5)N6)nc(OCC56CCCN5CC(F)C6)nc4c3F)c12 (centres undefined) was run?
A: 105% [middle of 4 runs]

Q: And the viability, T/C (compound 0.316 µM)?
A: 111% and 104% (2×) and 105%

Q: And the viability, T/C (compound 1 µM)?
A: 104% [middle of 4 runs]

Q: What about the viability, T/C (compound 3.16 µM) of the same compound?
A: 107% [middle of 4 runs]

Q: What about the viability, T/C (compound 10 µM) of the same compound?
A: 108% and 105% (2×) and 101%

Q: What about the IC50 (curve of compound) of the same compound?
A: > 10000 nM

Q: What does the source list for CC1(C)CCC(CN2CCN(c3ccc(C(=O)NS(=O)(=O)c4ccc(NCC5CCOCC5)c([N+](=O)[O-])c4)c(Oc4cnc5[nH]ccc5c4)c3)CC2)=C(c2ccc(Cl)cc2)C1 + Cc1nc(NC(=O)N2CCCC2C(N)=O)sc1-c1ccnc(C(C)(C)C(F)(F)F)c1?
A: IC50 [1]: 4850 nM; IC50 [2]: 4710 nM; IC50 [3]: 4720 nM; IC50 [4]: 4730 nM; IC50 [5]: 3710 nM; IC50 [6]: < 31.6 nM; viability, T/C [7]: 122%; viability, T/C [8]: 100%; viability, T/C [19]: 102%; viability, T/C [20]: 91.6%; viability, T/C [21]: 78.4%; viability, T/C [22]: 9.8%; viability, T/C [9]: 106%; viability, T/C [10]: 102%; viability, T/C [23]: 106%; viability, T/C [24]: 94.9%; viability, T/C [25]: 71.6%; viability, T/C [26]: 9.33%; viability, T/C [11]: 98.3%; viability, T/C [12]: 85.1%; viability, T/C [27]: 92.2%; viability, T/C [28]: 84.4%; viability, T/C [29]: 72.5%; viability, T/C [30]: 9.78%; viability, T/C [13]: 83.8%; viability, T/C [14]: 78.1%; viability, T/C [31]: 74.3%; viability, T/C [32]: 78.5%; viability, T/C [33]: 73.2%; viability, T/C [34]: 6.85%; viability, T/C [15]: 61.2%; viability, T/C [16]: 57%; viability, T/C (second compound 3.16 µM, first compound 0.316 µM): 58.3%; viability, T/C (second compound 3.16 µM, first compound 1 µM): 57.9%; viability, T/C (second compound 3.16 µM, first compound 3.16 µM): 56%; viability, T/C (second compound 3.16 µM, first compound 10 µM): 12.8%; viability, T/C [17]: 43.5%; viability, T/C [18]: 37.1%; viability, T/C (second compound 10 µM, first compound 0.316 µM): 40.1%; viability, T/C (second compound 10 µM, first compound 1 µM): 38.3%; viability, T/C (second compound 10 µM, first compound 3.16 µM): 43.1%; viability, T/C (second compound 10 µM, first compound 10 µM): 7.34%
